Results on two compounds are retold here after ChEMBL document CHEMBL1150893, “Grenadadiene and grenadamide, cyclopropyl-containing fatty acid metabolites from the marine cyanobacterium Lyngbya majuscula” (J Nat Prod, 1998).

≈ marks a conversion by molar mass, not a printed value.

A short description of data set [1]: Toxicity in Artemia salina. Format: organism-based. Particulars: in vivo, read-out: LD50 (the source's name).
Data set [2] in a line: Binding affinity to cannabinoid receptor in rat brain membrane assessed as cannabinomimetic activity. Format: cell membranes.

For `CCCCCCC[C@@H]1C[C@H]1CCC(=O)O/C=C\C=C\COC(C)=O` [DEBROMOGRENADINE], the LC50 in data set [1] was found to be 5 µg/mL (≈ 14.9 µM). For the same compound, the inhibition constant Ki in data set [2] worked out at 4.7 µM.

Consider `CCCCCCC[C@@H]1C[C@H]1CCC(=O)NCCc1ccccc1` [GRENADAMIDE C], for which the LC50 in data set [1] was 5 µg/mL (≈ 15.8 µM). Moreover, the Ki in data set [2] worked out at 4.7 µM.
